Data taken from publication PMC3498381, “Isolated Toll-like Receptor Transmembrane Domains Are Capable of Oligomerization” (PLoS ONE, 2012).
No end group written: not given here.

Key:
[1] = tested on: homotypic TMD-TMD interaction (ToxR / ctx promoter / β-galactosidase reporter in FHK12 E. coli); experiment: Homotypic ToxR reporter assay (β-galactosidase); assay type: cell-based; conditions: β-galactosidase Miller units normalized to GpA signal and expression levels; FHK12 E. coli; 3 replicates with >6 measurements each, N in table
Procedure: . Various plasmid constructs for this assay make it possible to monitor both homotypic and heterotypic interactions that are driven by TMD-TMD association (Fig. S1).
We first investigated homotypic interactions because the majority of the TLR family members function as homodimers. […] This ΔTM construct consists of the same maltose binding protein and ToxR domain, but lacks a TMD for proper membrane insertion (Fig. S2). Statistical analysis using the Tukey-Kramer test was performed to analyze any significant differences between all possible pairs of average interaction potentials (Table S2). […] Among the TLRs, no discernable differences in grouping based on statistical analysis at p = 0.05 were indicated as all receptors belonged to multiple groups, except for TLR1, which with the lowest interaction potential among the family of receptors only existed in one group (Table S1).
Figure 2 Toll-like Receptor Transmembrane Domain Homotypic Interactions. (A) The ToxR assay was used to study homotypic interactions of the TLR TMDs. A chimeric protein expressing the TMD of interest was monitored through β-galactosidase activity. In all cases, we saw that the TLRs have interaction potential solely from TMD-TMD interactions. Each TLR TMD interaction measurement analysis was performed on 3 technical replicates with >6 measurements for each replicate. Error bars depict the standard error of the mean (n – Table S1). Western blots staining for MBP were performed to monitor expression levels of the constructs – (B) chimeric maltose binding protein expression, (C) endogenous maltose binding protein expression. All samples were normalized to the GpA signal and expression levels.
Briefly, the ToxR plasmids containing the TMD of interest (200 ng) were transformed into chemically competent FHK12 E. coli (200 µL) by incubating on ice for 30 min, heat shock at 42°C for 90 s, incubation on ice for 2 min, and addition of SOC media (800 µL) followed by incubation with shaking for 1 h at 37°C. This transformation mixture (50 µL) was then spread on LB agar plates containing cholaramphenicol (30 µg/mL) and ampicillin (100 µg/mL) and grown overnight at 37°C. Single colonies were selected from the plates in triplicate and added to 5 mL of LB media containing cholaramphenicol (30 µg/mL), ampicillin (100 µg/mL), and arabinose (0.0025%). These cultures were incubated overnight (16–20 h) with shaking at 37°C. The β-galactosidase activity was monitored using a Beckman Coulter DTX 880 plate-reader. First 5 µL of each culture was plated >6 times in a clear 96-well flat bottom culture plate (Sarstedt) containing 100 µL of Z-buffer/chloroform (1% β-mercaptoethanol, 10% chloroform, 89% Z buffer: […], 10 mM potassium chloride, 1 mM magnesium sulfate, pH 7.0). The cell densities of each well were recorded by measuring the OD595. Bacteria were lysed by the addition of 50 µL Z-buffer/SDS (1.6% sodium dodecyl sulfate w/v in Z-buffer) and shaking at 28°C for 10 min. Enzymatic activity was measured by adding 50 µL of Z-buffer/ortho-Nitrophenyl-β-[…] (ONPG) (0.4% ONPG w/v in Z-buffer) and monitoring the reaction at 405 nm for a period of 20 min at 30 s intervals. Miller units were calculated using the equation: [drawing 1]
Western blotting was performed with antiserum recognizing the maltose-binding protein moiety of the constructs (Abcam). Data were normalized to GpA Miller Units and protein expression levels using ImageJ (NIH) as reported previously.

[2] = tested on: homotypic interaction of the same TMD peptide; experiment: Fluorescence self-quenching assay in C14-betaine micelles; assay type: binding, human; conditions: from molar fraction Kd compared with known ranges of TMD interactions
Excerpt: An apparent dissociation constant (Kd) can be determined from self-quenching interactions by varying the amount of detergent present for a fixed peptide concentration. At low detergent:peptide ratios, the TMD peptides are driven to interact; however, gradually increasing the amount of detergent present at a fixed peptide concentration will cause the TMD interactions to dissociate. Then, at some critical detergent:peptide ratio, the interaction is completely dissociated and the fluorescence plateaus. […] Fitting the data results in apparent dissociation constants, Kd, in terms of a dimensionless detergent:peptide ratio (molar fraction) as this ratio, instead of the bulk concentration, is more relevant to TMD peptide association. For TLR1 the Kd was determined to be 645.63±49.08, for TLR6 the Kd was determined to be 883.57±86.92 and for TLR2 the Kd was determined to be 4475.5±637.9. […]
Figure 5 TLR1, TLR2, and TLR6 Homotypic Interactions by Fluorescence Self-Quenching. […] Homotypic interaction affinity was studied by changes of fluorescence intensity at different molar ratios of detergent to peptide. […] Increasing detergent competes off the TMD-TMD interactions and leads to an increase in fluorescence signal. […] Kd were determined using the Hill Equation.
Fluorescence self-quenching was used to directly probe the homotypic interactions of the synthetic peptides. […] Peptide concentrations of these samples were determined by UV-VIS and adjusted with the corresponding C14-Betaine only buffers such that all peptide concentrations were 1 µM. […] Samples were allowed to equilibrate in the 96-well plate at room temperature for 2 h before measurement using a Beckman-Coulter DTX 880 Multimode Detector plate reader. […] Each data point is blank corrected for the corresponding C14-Betaine only signal and are the average of 3 different readings. To scale the data from 0 to 1, the initial data point was averaged and set to be zero by subtracting from all further readings, and the data points that are in the plateau region were averaged and then all values were divided by this average to get a maximum of 1. […]

Row | Substance | Mean homotypic TMD interaction (ToxR) [1] | Classification of homotypic interaction strength [2]
1 | TLR6*: TLR6 TMD chimera with nonfunctional ToxR* domain (negative phenotype) (GNRASITLLIVTIGATMLVLAVTVTSLCIYLGSLIN; also: fused to non-functional ToxR* (S87H) and maltose binding protein, ends not given here) | 0.5764 | weak
2 | TLR2*: TLR2 TMD chimera with nonfunctional ToxR* domain (negative phenotype) (GNRASALVSGMCCALFLLILLTGVLCGSLIN; cysteine pairing not given here; also: fused to non-functional ToxR* (S87H) and maltose binding protein, ends not given here) | 0.7829 | moderately strong
3 | TLR1*: TLR1 TMD chimera with nonfunctional ToxR* domain (negative phenotype) (GNRASITLLIVTIVATMLVLAVTVTSLCSYLGSLIN; also: fused to non-functional ToxR* (S87H) and maltose binding protein, ends not given here) | 0.4775 | weak
